# In BigSolDB 2.1:
smiles,measurement,setting,value
O=CC(NS(=O)(=O)[O-])C(O)C(O)C(O)CO.[Na+] (stereo unspecified),solubility (mole fraction),"in ethanol, 288.15 K",8e-05
same,solubility (mole fraction),"in ethanol, 293.15 K",0.00012
same,solubility (mole fraction),"in ethanol, 298.15 K",0.00021
same,solubility (mole fraction),"in ethanol, 303.15 K",0.00027
same,solubility (mole fraction),"in ethanol, 308.15 K",0.00035
same,solubility (mole fraction),"in ethanol, 313.15 K",0.00046
same,solubility (mole fraction),"in ethanol, 318.15 K",0.00055
same,solubility (mole fraction),"in methanol, 288.15 K",0.0004
same,solubility (mole fraction),"in methanol, 293.15 K",0.00046
same,solubility (mole fraction),"in methanol, 298.15 K",0.00052
same,solubility (mole fraction),"in methanol, 303.15 K",0.00058
same,solubility (mole fraction),"in methanol, 308.15 K",0.00064
same,solubility (mole fraction),"in methanol, 313.15 K",0.0007
same,solubility (mole fraction),"in methanol, 318.15 K",0.00076
same,solubility (mole fraction),"in water, 288.15 K",0.0315
same,solubility (mole fraction),"in water, 293.15 K",0.0345
same,solubility (mole fraction),"in water, 298.15 K",0.0388
same,solubility (mole fraction),"in water, 303.15 K",0.0444
same,solubility (mole fraction),"in water, 308.15 K",0.0514
same,solubility (mole fraction),"in water, 313.15 K",0.0601
same,solubility (mole fraction),"in water, 318.15 K",0.0727
